Measurements: US20240199605A1, “SMALL MOLECULAR INHIBITORS OF NF-kB INDUCING KINASE” (Janssen Pharmaceutica NV, priority 2019, published 2024)

Legend:
[1] = biological target: recombinant human NF-kappaB-inducing kinase (NIK/MAP3K14) (Homo sapiens (Human), UniProt Q99558); assay: Inhibition of auto-phosphorylation of recombinant human NIK/MAP3K14 (AlphaScreen); assay type: biochemical; conditions: NIK auto-phosphorylation, 5 μM ATP, 1 nM NIK, 2 h at 25° C.; average of values
Outline: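 AlphaScreen read-out (anti-phospho-IKK Ser176/180 antibody, Protein A acceptor and glutathione donor beads) of NIK auto-phosphorylation. Reaction: 1 nM enzyme, 5 μM ATP, Tris pH 7.5 buffer with Mg2+ and vanadate, 2 h at 25° C., final DMSO 0.7%. IC50 came from a sigmoidal curve fit.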

[2] = system: p-IKKα levels in L363 (NIK translocated multiple myeloma) cells; assay: Effect of compounds on p-IKKα levels in L363 cells (AlphaLISA SureFire Ultra); assay type: cell-based, human; conditions: Homo sapiens, L-363, 6 h, BAFF stimulated, MG132, 6 h, average of values, read-out: Assay 2 IC50
Outline: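 Inhibition of p-IKKα (Ser176/180) read by AlphaLISA after 6 h, 37 °C compound exposure (11-point 1:3 series, 0.3% DMSO) of L363 cells pre-incubated overnight ± 250 ng/ml BAFF and plated ± BAFF ± 10 μM MG132. Normalised to BAFF/MG132/DMSO and unstimulated controls; IC50 by sigmoidal fitting, duplicates.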

Sequence of recombinant human NF-kappaB-inducing kinase (NIK/MAP3K14) (Q99558 whole entry): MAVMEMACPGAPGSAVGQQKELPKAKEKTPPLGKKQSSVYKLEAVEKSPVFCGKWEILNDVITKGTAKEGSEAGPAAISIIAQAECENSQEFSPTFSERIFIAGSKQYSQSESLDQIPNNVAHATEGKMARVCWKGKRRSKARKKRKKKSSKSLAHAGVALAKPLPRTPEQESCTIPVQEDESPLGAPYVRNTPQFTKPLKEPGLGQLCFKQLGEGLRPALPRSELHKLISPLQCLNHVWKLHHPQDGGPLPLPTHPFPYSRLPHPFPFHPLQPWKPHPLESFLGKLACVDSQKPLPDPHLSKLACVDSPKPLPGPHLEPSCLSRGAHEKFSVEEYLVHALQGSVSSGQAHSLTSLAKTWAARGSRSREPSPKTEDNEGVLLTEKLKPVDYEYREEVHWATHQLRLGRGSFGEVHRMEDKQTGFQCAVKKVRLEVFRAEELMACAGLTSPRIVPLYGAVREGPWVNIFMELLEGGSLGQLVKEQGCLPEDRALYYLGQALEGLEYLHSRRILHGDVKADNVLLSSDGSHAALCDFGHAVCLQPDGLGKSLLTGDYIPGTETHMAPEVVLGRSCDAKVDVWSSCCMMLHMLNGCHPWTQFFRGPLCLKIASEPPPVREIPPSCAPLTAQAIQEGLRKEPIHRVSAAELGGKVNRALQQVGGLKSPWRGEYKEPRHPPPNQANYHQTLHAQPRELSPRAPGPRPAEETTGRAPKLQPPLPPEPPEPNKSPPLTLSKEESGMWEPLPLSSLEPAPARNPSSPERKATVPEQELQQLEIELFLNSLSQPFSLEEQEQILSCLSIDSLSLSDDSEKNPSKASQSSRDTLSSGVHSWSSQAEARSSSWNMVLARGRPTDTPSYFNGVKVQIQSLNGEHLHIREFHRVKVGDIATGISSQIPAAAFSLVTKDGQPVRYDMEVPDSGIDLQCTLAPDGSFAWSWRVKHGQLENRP

## CN1CC[C@@](O)(C#Cc2cccc(-c3ccc4ncnc(N5CC(O)C5)c4n3)c2)C1=O [Example 228, (R)-3-Hydroxy-3-((3-(4-(3-hydroxyazetidin-1-yl)pyrido[3,2-d]pyrimidin-6-yl)phenyl)ethynyl)-1-methylpyrrolidin-2-one]
[1]
  IC50: 4.8 nM
[2]
  IC50: 300 nM

## Cc1ccc(C#C[C@]2(O)CCN(C)C2=O)cc1-c1ccc2ncnc(N)c2n1 [Example 3, (R)-3-[2-[3-(4-Aminopyrido[3,2-d]pyrimidin-6-yl)-4-methyl-phenyl]ethynyl]-3-hydroxy-1-methyl-pyrrolidin-2-one]
[1]
  IC50: 0.7 nM
[2]
  IC50: 28 nM

## Cc1cc(-c2cccc(C#C[C@]3(O)CCN(C)C3=O)c2)nc2c(N)ncnc12 [Example 28, (R)-3-((3-(4-Amino-8-methylpyrido[3,2-d]pyrimidin-6-yl)phenyl)ethynyl)-3-hydroxy-1-methylpyrrolidin-2-one]
[1]
  IC50: ≤ 0.5 nM
[2]
  IC50: 0.7 nM

## Nc1nccc2cnc(-c3cccc(C#CC4(O)CCN(CC(F)(F)F)C4=O)c3)nc12 (stereo in doubt) [Example 72, (R)-3-[2-[3-(8-Aminopyrido[3,4-d]pyrimidin-2-yl)phenyl]ethynyl]-3-hydroxy-1-(2,2,2-trifluoroethyl)pyrrolidin-2-one]
[1]
  IC50: 8 nM
[2]
  IC50: 910 nM

## Cc1nc(N)c2nc(-c3cccc(C#C[C@@]4(O)C(=O)N(C)[C@@H]5C[C@@H]54)c3)ccc2n1 [Example 273, (1R,4R,5S)-4-((3-(4-Amino-2-methylpyrido[3,2-d]pyrimidin-6-yl)phenyl)ethynyl)-4-hydroxy-2-methyl-2-azabicyclo[3.1.0]hexan-3-one]
[1]
  IC50: 2.7 nM
[2]
  IC50: 27 nM

## CN1CC[C@@](O)(C#Cc2cccc(-c3ncc4ccnc(N5CCC5)c4n3)c2)C1=O [Example 247, (R)-3-((3-(8-(Azetidin-1-yl)pyrido[3,4-d]pyrimidin-2-yl)phenyl)ethynyl)-3-hydroxy-1-methylpyrrolidin-2-one]
[1]
  IC50: 850 nM
[2]
  IC50: > 5000 nM

## [2H]c1nc(N)c2nc(-c3cccc(C#C[C@]4(O)CCN(C)C4=O)c3)cc(CC)c2n1 [Example 308, (R)-3-((3-(4-Amino-8-ethylpyrido[3,2-d]pyrimidin-6-yl-2-d)phenyl)ethynyl)-3-hydroxy-1-methylpyrrolidin-2-one]
[1]
  IC50: 6.8 nM
[2]
  IC50: 190 nM

## CN1CC[C@@](O)(C#Cc2cccc(-c3nc4c(N)nccc4c(=O)[nH]3)c2)C1=O [Example 55, (R)-8-Amino-2-(3-((3-hydroxy-1-methyl-2-oxopyrrolidin-3-yl)ethynyl)phenyl)pyrido[3,4-d]pyrimidin-4(3H)-one]
[1]
  IC50: ≤ 0.5 nM
[2]
  IC50: 29 nM

## Cc1nnc([C@](C)(O)C#Cc2cccc(-c3ccc4ccnc(N)c4n3)c2)o1 [Example 88, (R)-4-[3-(8-Amino-1,7-naphthyridin-2-yl)phenyl]-2-(5-methyl-1,3,4-oxadiazol-2-yl)but-3-yn-2-ol]
[1]
  IC50: 4.7 nM
[2]
  IC50: 400 nM

## CN1CC[C@@](O)(C#Cc2cccc(-c3cc4c(N)ncnc4s3)c2)C1=O [Example 141, (R)-3-((3-(4-Aminothieno[2,3-d]pyrimidin-6-yl)phenyl)ethynyl)-3-hydroxy-1-methylpyrrolidin-2-one]
[1]
  IC50: 16 nM
[2]
  IC50: 2450 nM

## CN1CC[C@@](O)(C#Cc2cccc(-c3ncc4c(-c5ccccc5)cnc(N)c4n3)c2)C1=O [Example 121, (R)-3-((3-(8-Amino-5-phenylpyrido[3,4-d]pyrimidin-2-yl)phenyl)ethynyl)-3-hydroxy-1-methylpyrrolidin-2-one]
[1]
  IC50: 0.7 nM
[2]
  IC50: 42 nM

## [2H]c1nc(N)c2nc(-c3cc(C#C[C@]4(O)CCN(C)C4=O)ccc3C)ccc2n1 [Example 149, (R)-3-((3-(4-Aminopyrido[3,2-d]pyrimidin-6-yl-2-d)-4-methylphenyl)ethynyl)-3-hydroxy-1-methylpyrrolidin-2-one]
[1]
  IC50: ≤ 0.5 nM
[2]
  IC50: 17 nM
